# Data from patent US8598339B2, “Withanolide isolated from Physalis longifolia and analogs and methods of use thereof” (University of Kansas, priority 2011, dated 2013).
# Columns and labels:
# Type in all cases: cell-based
# [1] = test system: melanoma cells B16F10; test: MTS cell viability assay, B16F10; settings: Mus musculus; for IC50: B16-F10, Table 5; for IC90: B16-F10, Table 6
# Protocol: (§1) Human carcinoid cells, NCI-H727 (ATCC, Manassas, Va.), were cultured under standard conditions. Squamous cell carcinoma of head and neck cells, MDA1986 (Myers, et al. (2002) Clin. Cancer Res. 8:293) and JMAR (Swan, et al. (2003) Oral Oncol. 39:648-55); and melanoma cells lines B16F10 (ATCC, Manassas, Va.) and SKMEL28 (CLS, Eppelheim, Germany) were cultured in DMEM medium supplemented with 10% heat-inactivated fetal bovine serum (Sigma-Aldrich, St. Louis, Mo.), 1×MEM-essential amino acid, 1×MEM vitamin, and penicillin/streptomycin (Sigma-Aldrich, St. Louis, Mo.) in a humid environment of 5% CO2 at 37° C. Activity of withanolides against DRO81-1 and TT medullary thyroid cancer cells was also determined.
# (§2) Cells were cultured in 96 well plates at a concentration of 1-2×10^4 cells/mL. Cell viability was assessed with the nonradioactive cell proliferation MTS assay using Cell Titer 96AQUEOUS One Solution Reagent (PROMEGA, Madison, Wis.), according to the manufacturer's instruction. After a 72-hour treatment, 20 μL of Cell Titer 96AQUEOUS One Solution Reagent were added to each well and incubated for 3 hours at 37° C. 5% CO2, and formazan absorbance was measured at 490 nm.
# [2] = test system: human melanoma SKMEL28 cells; test: MTS cell viability assay, SKMEL28; settings: for IC90: SK-MEL-28, Table 6
# Protocol: as §1, §2
# A cell viability MTS assay was carried out to determine the anti-cancer effect of the withanolides on human melanoma SKMEL28 cells. Cells were treated for 72 hours and cell viability was determined according to the manufacturer's instruction.
# [3] = test system: squamous cell carcinoma of head and neck cells MDA1986; test: MTS cell viability assay, MDA1986; settings: for IC50: Table 5; for IC90: Table 6
# Protocol: as §1, §2
# [4] = test system: squamous cell carcinoma of head and neck cells JMAR; test: MTS cell viability assay, JMAR; settings: for IC50: Table 5; for IC90: Table 6
# Protocol: as §1, §2
# [5] = test system: MRC-5; test: MTS cell viability assay, MRC-5; settings: Homo sapiens, MRC5, Table 5
# [6] = Homo sapiens, SK-MEL-28, Table 5
# [7] = Table 3, treated for 72 hours, NA = no activity
SMILES,IC50 [1],"IC50 [2, 6]",IC50 [3],IC50 [4],IC50 [5],IC90 [1],IC90 ([2]; Homo sapiens),IC90 [3],IC90 [4],"IC50 [2, 7]"
CC1=C(CO)C(=O)O[C@@H]([C@@H](C)[C@H]2CC[C@H]3[C@@H]4CC=C5C=CC(=O)[C@]5(C)[C@H]4CC[C@]23C)C1 [Compound X006],19.2 µM,> 25 µM,> 25 µM,19.7 µM,> 25 µM,,,,,
CC1=C(CO)C(=O)O[C@@H]([C@@H](C)[C@H]2CC[C@H]3[C@@H]4C[C@H]5O[C@]56[C@@H](OC(=O)CN(C)C)C=CC(=O)[C@]6(C)[C@H]4CC[C@]23C)C1 [Compound X036],4.37 µM,2.35 µM,1.59 µM,3.53 µM,3.69 µM,,,,,
CC1=C(COC2OC(CO)C(O)C(O)C2O)C[C@H]([C@@H](C)[C@H]2CC[C@H]3[C@@H]4C[C@H](O)c5cccc(O)c5[C@H]4CC[C@]23C)OC1=O (stereo partly drawn) [Compound X015],> 25 µM,> 25 µM,> 25 µM,> 25 µM,> 25 µM,,,,,
CC(=O)OCC1=C(C)C[C@H]([C@@H](C)[C@H]2CC[C@H]3[C@@H]4C[C@H]5O[C@]56[C@@H](O)C=CC(=O)[C@]6(CO)[C@H]4CC[C@]23C)OC1=O [HFM-JA-336A],0.28 µM,0.58 µM,,3.6 µM,,2.7 µM,0.86 µM,2.7 µM,9.8 µM,
CO[C@H]1CC(=O)[C@]2(C)[C@@H]3[C@@H](C[C@H]4O[C@]42[C@H]1O)[C@@H]1CC[C@H]([C@H](C)[C@H]2CC(C)=C(CO)C(=O)O2)[C@@]1(C)C[C@@H]3O [Compound X007],5.57 µM,11.6 µM,8.34 µM,12 µM,7.33 µM,,,,,
"CC1=C(CO)C(=O)O[C@@H]([C@@H](C)[C@H]2CC[C@H]3[C@@H]4C[C@H]5O[C@]56[C@@H](O)[C@@H](O)CC(=O)[C@]6(C)[C@H]4CC[C@]23C)C1 [Viscosalactone B, reference compound]",,,,,,,,,,18.9 µM
CC(=O)OC[C@]12C(=O)C=C[C@H](O)[C@]13O[C@@H]3C[C@H]1[C@@H]3CC[C@H]([C@H](C)[C@H]4CC(C)=C(CO)C(=O)O4)[C@@]3(C)CC[C@@H]12 [HFM-JA-336B],0.37 µM,0.24 µM,,1.2 µM,,1.2 µM,1.16 µM,1.2 µM,3.1 µM,
CC(=O)O[C@H]1C=CC(=O)[C@]2(CO)[C@H]3CC[C@]4(C)[C@@H]([C@H](C)[C@H]5CC(C)=C(CO)C(=O)O5)CC[C@H]4[C@@H]3C[C@H]3O[C@]132 [HFM-JA-336C],0.69 µM,0.57 µM,,2 µM,,2.5 µM,1.21 µM,2.5 µM,6.5 µM,
CC(=O)OCC1=C(C)C[C@H]([C@@H](C)[C@H]2CC[C@H]3[C@@H]4C[C@H]5O[C@]56[C@@H](O)C=CC(=O)[C@]6(COC(C)=O)[C@H]4CC[C@]23C)OC1=O [HFM-JA-336D],0.37 µM,0.27 µM,,1.45 µM,,2.5 µM,0.42 µM,2.5 µM,7.1 µM,
"C=CCNC1=C2C[C@@H](C)C[C@H](OC)[C@H](O)[C@@H](C)/C=C(\C)[C@H](OC(N)=O)[C@@H](OC)/C=C\C=C(/C)C(=O)NC(=CC1=O)C2=O [17 AAG, 17-allylamino-17-demethoxygeldanamycin, reference compound]",,,,,,,,,,0.23 µM
"CC1=C(CO)C(=O)OC(C(C)C2CCC3C4CC(O)C5(C=O)CCC(=O)C5(C)C4CCC23C)C1 (stereo not drawn) [Compound O010, 22R-5β-formyl-6β,27-dihydroxyl-1-oxo-4-norwith-24-enolide, reference compound]",,,,,,,,,,17 µM
